From publication PMC7531004, “Discovery of gramicidin A analogues with altered activities by multidimensional screening of a one-bead-one-compound library” (Nature Communications, 2020) come the findings set out here.

The nature of series [1]: H+/Na+ transport assay of bead-derived peptides (one-point).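 Also: relative to parent gramicidin A activity set to 1.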 To be noted: bead-derived peptide solution, EYPC/EYPG LUVs. On the set-up: key: relative activity; mean of two control wells = 1.00. Type of series: biochemical. The gist of the method:
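Pyranine (1.0 mM)-loaded LUVs containing egg yolk phosphatidylglycerol were prepared by film hydration, sonication and extrusion, then mixed with diluted bead-derived peptide in 96-well format and vortexed 30 min at room temperature. Fluorescence was normalized between untreated LUVs (0%) and Triton X-100 lysis (100%).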

For series [2] the following is noted: cell viability/%. Put shortly: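 Peptide stocks diluted 250× in growth medium; P388 cells 1 × 10^4 cells/mL final; 37 °C, 5% CO2, 92 h. WST-1 + 1-methoxy PMS, 4 h, A415. Output: % viability.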
Series [3] relates to Streptococcus pyogenes SSI-9. The experiment in a line: Antibacterial activity assay of bead-derived peptides (three concentrations). It is filed as cell-based. On the set-up: key: +++: inhibition by the 640-fold diluted peptide solution; ++: inhibition by the 160-fold diluted solution; +: inhibition by the 40-fold diluted solution; -: no inhibition. To be noted: S. pyogenes, bead-derived peptide solution, three concentrations. Put shortly:
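First, each peptide stock was diluted 4- and 16-fold in DMSO; next, the three solutions were mixed with S. pyogenes SSI-9 suspension (2 × 10^5 CFU) in cation-adjusted Mueller Hinton Broth plus 5% laked horse blood; finally, plates stood 18 h at 37 °C before checking for grown-cell precipitation.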

Where a SMILES comes first, the peptide text is derived from it. [ ]: non-standard residue; d: D form. The star is where a group is joined. NHCH2CH2OH = OCCN*; For = O=C*

For `CC(C)C[C@@H](NC(=O)[C@H](Cc1c[nH]c2ccccc12)NC(=O)[C@@H](CC(C)C)NC(=O)[C@H](Cc1c[nH]c2ccccc12)NC(=O)[C@@H](CC(C)C)NC(=O)[C@H](Cc1c[nH]c2ccccc12)NC(=O)[C@H](NC(=O)[C@@H](NC(=O)[C@H](NC(=O)[C@H](C)NC(=O)[C@H](NC(=O)[C@H](C)NC(=O)CNC(=O)[C@@H](NC=O)C(C)C)[C@H](C)O)C(C)C)C(C)C)C(C)C)C(=O)N[C@@H](Cc1c[nH]c2ccccc12)C(=O)NCCO` [compound 3786] (For-VGA[dT]A[dV]V[dV]W[dL]W[dL]W[dL]W-NHCH2CH2OH), in series [1], the “H+/Na+ transport activity normalized against the value of 1 (1.00)” value (“H+/Na+ transport activity normalized” below) came out at 1.18. In series [2], the viability (as a rule, a per cent measure of how many cells are alive, often set against a control) was 100%. Also, the antibacterial activity entry in series [3] is reported as “-”.
With `CC(C)C[C@@H](NC(=O)[C@H](C)NC(=O)[C@H](NC(=O)[C@H](C)NC(=O)CNC(=O)[C@@H](NC=O)C(C)C)C(C)C)C(=O)N[C@H](C(=O)N[C@H](CC(C)C)C(=O)N[C@@H](Cc1c[nH]c2ccccc12)C(=O)N[C@H](CC(C)C)C(=O)N[C@@H](Cc1c[nH]c2ccccc12)C(=O)N[C@@H](C(=O)N[C@@H](Cc1c[nH]c2ccccc12)C(=O)N[C@@H](C(=O)N[C@@H](Cc1c[nH]c2ccccc12)C(=O)NCCO)[C@H](C)O)C(C)C)C(C)C` [compound 3828] (For-VGA[dV]A[dL]V[dL]W[dL]W[dV]W[dT]W-NHCH2CH2OH), the “H+/Na+ transport activity normalized” value in series [1] stood at 1.02. The same compound came in with a viability in series [2] of 95.2%. Further, the antibacterial activity result in series [3] was “+”.
As to `CNC(=O)C[C@@H](NC(=O)[C@H](Cc1c[nH]c2ccccc12)NC(=O)[C@@H](CC(C)C)NC(=O)[C@H](Cc1c[nH]c2ccccc12)NC(=O)[C@H](NC(=O)[C@H](Cc1c[nH]c2ccccc12)NC(=O)[C@@H](CC(C)C)NC(=O)[C@@H](NC(=O)[C@@H](CC(C)C)NC(=O)[C@H](C)NC(=O)[C@@H](CC(C)C)NC(=O)[C@H](C)NC(=O)CNC(=O)[C@@H](NC=O)C(C)C)C(C)C)C(C)C)C(=O)N[C@@H](Cc1c[nH]c2ccccc12)C(=O)NCCO` [compound 3854] (For-VGA[dL]A[dL]V[dL]W[dV]W[dL]W[dD](NHMe)W-NHCH2CH2OH), in series [1], the “H+/Na+ transport activity normalized” value is given as 1.18. The viability in series [2] was 100%. Besides, in series [3], the antibacterial activity result was “-”.
With `CC(C)C[C@@H](NC(=O)[C@H](C)NC(=O)CNC(=O)[C@@H](NC=O)C(C)C)C(=O)N[C@@H](C)C(=O)N[C@H](CC(C)C)C(=O)N[C@H](C(=O)N[C@@H](C(=O)N[C@@H](Cc1c[nH]c2ccccc12)C(=O)N[C@@H](C(=O)N[C@@H](Cc1c[nH]c2ccccc12)C(=O)N[C@H](CC(C)C)C(=O)N[C@@H](Cc1c[nH]c2ccccc12)C(=O)N[C@H](CC(C)C)C(=O)N[C@@H](Cc1c[nH]c2ccccc12)C(=O)NCCO)[C@H](C)O)[C@H](C)O)C(C)C` [compound 3858] (For-VGA[dL]A[dL]V[dT]W[dT]W[dL]W[dL]W-NHCH2CH2OH), the “H+/Na+ transport activity normalized” value in series [1] was 1.28. In series [2], this compound registered a viability of 100%. In series [3], the antibacterial activity entry was “-”.
For `CC(C)C[C@@H](NC(=O)[C@H](C)NC(=O)CNC(=O)[C@@H](NC=O)C(C)C)C(=O)N[C@@H](C)C(=O)N[C@@H](C(=O)N[C@H](C(=O)N[C@@H](C(=O)N[C@@H](Cc1c[nH]c2ccccc12)C(=O)N[C@H](CC(C)C)C(=O)N[C@@H](Cc1c[nH]c2ccccc12)C(=O)N[C@@H](C(=O)N[C@@H](Cc1c[nH]c2ccccc12)C(=O)N[C@H](CC(C)C)C(=O)N[C@@H](Cc1c[nH]c2ccccc12)C(=O)NCCO)C(C)C)C(C)C)C(C)C)C(C)C` [compound 3861] (For-VGA[dL]A[dV]V[dV]W[dL]W[dV]W[dL]W-NHCH2CH2OH), the “H+/Na+ transport activity normalized” value in series [1] is 1.51. The same compound came in with a viability in series [2] of 0.1%. Besides, in series [3], the antibacterial activity entry is listed as “++”.
For `CNC(=O)C[C@@H](NC(=O)[C@H](Cc1c[nH]c2ccccc12)NC(=O)[C@H](NC(=O)[C@H](Cc1c[nH]c2ccccc12)NC(=O)[C@H](NC(=O)[C@H](Cc1c[nH]c2ccccc12)NC(=O)[C@@H](CC(C)C)NC(=O)[C@@H](NC(=O)[C@@H](CC(C)C)NC(=O)[C@H](C)NC(=O)[C@H](NC(=O)[C@H](C)NC(=O)CNC(=O)[C@@H](NC=O)C(C)C)C(C)C)C(C)C)C(C)C)C(C)C)C(=O)N[C@@H](Cc1c[nH]c2ccccc12)C(=O)NCCO` [compound 3866] (For-VGA[dV]A[dL]V[dL]W[dV]W[dV]W[dD](NHMe)W-NHCH2CH2OH) the same measures were 1.31, 100% and “-”.
Regarding `CNC(=O)C[C@@H](NC(=O)[C@H](Cc1c[nH]c2ccccc12)NC(=O)[C@H](NC(=O)[C@H](Cc1c[nH]c2ccccc12)NC(=O)[C@@H](CC(C)C)NC(=O)[C@@H](NC(=O)[C@@H](CC(C)C)NC(=O)[C@H](C)NC(=O)[C@@H](CC(C)C)NC(=O)[C@H](C)NC(=O)CNC(=O)[C@@H](NC=O)C(C)C)C(C)C)C(C)C)C(=O)N[C@@H](Cc1c[nH]c2ccccc12)C(=O)N[C@@H](C(=O)N[C@@H](Cc1c[nH]c2ccccc12)C(=O)NCCO)[C@H](C)O` [compound 3885] (For-VGA[dL]A[dL]V[dL]W[dV]W[dD](NHMe)W[dT]W-NHCH2CH2OH), the “H+/Na+ transport activity normalized” value in series [1] is given as 1.00. The compound also showed a viability in series [2] of 100%. Moreover, the antibacterial activity result in series [3] was “-”.
For the compound `CNC(=O)C[C@@H](NC(=O)[C@H](Cc1c[nH]c2ccccc12)NC(=O)[C@H](NC(=O)[C@H](Cc1c[nH]c2ccccc12)NC(=O)[C@@H](CC(C)C)NC(=O)[C@H](Cc1c[nH]c2ccccc12)NC(=O)[C@@H](CC(C)C)NC(=O)[C@@H](NC(=O)[C@H](NC(=O)[C@H](C)NC(=O)[C@H](NC(=O)[C@H](C)NC(=O)CNC(=O)[C@@H](NC=O)C(C)C)C(C)C)C(C)C)C(C)C)C(C)C)C(=O)N[C@@H](Cc1c[nH]c2ccccc12)C(=O)NCCO` [compound 3903] (For-VGA[dV]A[dV]V[dL]W[dL]W[dV]W[dD](NHMe)W-NHCH2CH2OH), in series [1], the “H+/Na+ transport activity normalized” value is on record as 1.10. Further, the viability in series [2] is 100%. For the same compound, the antibacterial activity entry in series [3] is listed as “-”.
`CNC(=O)C[C@@H](NC(=O)[C@@H](NC(=O)[C@@H](CC(C)C)NC(=O)[C@H](C)NC(=O)[C@@H](CC(C)C)NC(=O)[C@H](C)NC(=O)CNC(=O)[C@@H](NC=O)C(C)C)C(C)C)C(=O)N[C@@H](Cc1c[nH]c2ccccc12)C(=O)N[C@@H](C(=O)N[C@@H](Cc1c[nH]c2ccccc12)C(=O)N[C@@H](C(=O)N[C@@H](Cc1c[nH]c2ccccc12)C(=O)N[C@@H](C(=O)N[C@@H](Cc1c[nH]c2ccccc12)C(=O)NCCO)C(C)C)C(C)C)C(C)C` [compound 3931] (For-VGA[dL]A[dL]V[dD](NHMe)W[dV]W[dV]W[dV]W-NHCH2CH2OH): the “H+/Na+ transport activity normalized” value in series [1] is 1.16. Further, the viability in series [2] is 100%. Also, the antibacterial activity result in series [3] is on record as “-”.
For `CC(C)C[C@@H](NC(=O)[C@H](C)NC(=O)[C@H](NC(=O)[C@H](C)NC(=O)CNC(=O)[C@@H](NC=O)C(C)C)C(C)C)C(=O)N[C@H](C(=O)N[C@@H](C(=O)N[C@@H](Cc1c[nH]c2ccccc12)C(=O)N[C@H](CC(C)C)C(=O)N[C@@H](Cc1c[nH]c2ccccc12)C(=O)N[C@H](CC(C)C)C(=O)N[C@@H](Cc1c[nH]c2ccccc12)C(=O)N[C@H](CC(C)C)C(=O)N[C@@H](Cc1c[nH]c2ccccc12)C(=O)NCCO)[C@H](C)O)C(C)C` [compound 3956] (For-VGA[dV]A[dL]V[dT]W[dL]W[dL]W[dL]W-NHCH2CH2OH) the same measures were 1.12, 100% and “+”.
